SMILES strings stand for the structures.

The target in this assay is H+/K+-ATPase (rabbit gastric mucosal microsomes) (Oryctolagus cuniculus (Rabbit), UniProt P27112). Nature of the assay: In vitro screening test of H+/K+-ATPase inhibition (malachite green). Conditions: pH 6.5, 37° C. 30 min, read-out: IC50, inhibitory effect on H+/K+-ATPase activity. Format: biochemical. The source says: This test example evaluates the inhibitory effects of the compounds of the present invention on the activity of H+/K+-ATPase by an in vitro screening test, and expresses them with the IC50 values of the compounds (obtained by calculating the inhibition rates at different concentrations).
Sequence of H+/K+-ATPase (rabbit gastric mucosal microsomes) (P27112 whole entry): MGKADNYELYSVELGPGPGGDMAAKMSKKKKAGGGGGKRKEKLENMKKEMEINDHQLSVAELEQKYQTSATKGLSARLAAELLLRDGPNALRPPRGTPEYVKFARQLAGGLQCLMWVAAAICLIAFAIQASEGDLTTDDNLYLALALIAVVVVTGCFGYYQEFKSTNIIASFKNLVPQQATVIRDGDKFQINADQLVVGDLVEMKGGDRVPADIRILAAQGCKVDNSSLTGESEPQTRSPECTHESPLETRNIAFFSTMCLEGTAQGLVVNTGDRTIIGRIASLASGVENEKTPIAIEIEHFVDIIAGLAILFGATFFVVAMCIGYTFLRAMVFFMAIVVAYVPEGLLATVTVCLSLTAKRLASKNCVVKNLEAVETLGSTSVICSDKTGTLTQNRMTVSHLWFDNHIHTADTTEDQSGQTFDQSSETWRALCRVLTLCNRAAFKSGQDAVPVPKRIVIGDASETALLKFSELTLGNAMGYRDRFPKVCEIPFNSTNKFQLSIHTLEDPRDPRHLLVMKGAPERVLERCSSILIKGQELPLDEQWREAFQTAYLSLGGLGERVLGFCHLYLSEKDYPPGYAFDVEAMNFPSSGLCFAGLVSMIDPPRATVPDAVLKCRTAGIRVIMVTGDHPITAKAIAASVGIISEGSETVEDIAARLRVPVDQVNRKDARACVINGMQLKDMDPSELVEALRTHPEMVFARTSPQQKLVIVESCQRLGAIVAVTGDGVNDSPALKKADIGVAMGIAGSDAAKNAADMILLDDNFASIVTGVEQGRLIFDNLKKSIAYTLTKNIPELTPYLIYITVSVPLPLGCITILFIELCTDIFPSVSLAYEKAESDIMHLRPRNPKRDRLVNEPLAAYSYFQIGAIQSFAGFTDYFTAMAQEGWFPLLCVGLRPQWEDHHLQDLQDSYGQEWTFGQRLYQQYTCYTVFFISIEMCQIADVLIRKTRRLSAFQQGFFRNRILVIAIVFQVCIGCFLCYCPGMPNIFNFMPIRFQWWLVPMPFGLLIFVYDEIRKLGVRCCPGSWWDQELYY
Sequence of H+/K+-ATPase (rabbit gastric mucosal microsomes) (P18597 whole entry partner): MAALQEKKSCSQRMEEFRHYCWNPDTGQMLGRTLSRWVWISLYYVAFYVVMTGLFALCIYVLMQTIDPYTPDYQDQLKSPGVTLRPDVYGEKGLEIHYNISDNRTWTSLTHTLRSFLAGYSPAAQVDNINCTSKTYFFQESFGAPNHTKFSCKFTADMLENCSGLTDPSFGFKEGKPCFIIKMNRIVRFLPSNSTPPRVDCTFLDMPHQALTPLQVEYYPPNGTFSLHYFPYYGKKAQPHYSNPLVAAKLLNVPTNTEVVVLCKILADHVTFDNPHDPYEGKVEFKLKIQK
• Compound solutions: The products (i.e., the compounds or the hydrochloride salt of compounds) obtained in the foregoing preparation examples of the present invention were each independently dissolved in DMSO to form solutions at suitable concentrations; • Buffer I: 50 mmol/L HEPEs-Tris, pH=6.5, 5 mmol/L magnesium chloride, […] valinomycin (J&K Scientific Ltd., goods No.: 227304); • Buffer II: 50 mmol/L HEPEs-Tris, pH=6.5, 5 mmol/L magnesium chloride, […] valinomycin, 5 mmol/L potassium chloride; • 5-adenosine triphosphate (ATP, Sigma-Aldrich, goods No.: A2383) solution: Dilute ATP with buffer I to 5 mM; • Malachite green solution: Dissolve 0.12 wt % malachite green (J&K Scientific Ltd., goods No.: 913120) in 2.5 mol/L sulfuric acid, 7.5 wt % ammonium molybdate (J&K Scientific Ltd., goods No.: 128321) and 11% Tween 20(V/V). During use, sulfuric acid, ammonium molybdate and Tween 20 are mixed in a ratio of 100:25:2; • Rabbit gastric mucosal microsomes (rich in H+/K+-ATPase, self-extracted), extracted by sucrose gradient centrifugation: The rabbit stomach was washed with tap water and 3M NaCl solution, respectively, and then the surface water was removed with filter paper. A pre-cooled homogenization buffer (4 ml/g tissue) was added and homogenized for 2-5 min in a tissue homogenizer. After the homogenizing, if there are large tissue particles, they can be removed by centrifugation (600 g, 10 min). The supernatant was then transferred to a clean centrifuge tube and centrifuged at 20,000 g for 30 min, then the supernatant was transferred to a clean centrifuge tube and further centrifuged at 100,000 g for 90 min and the precipitate was collected; the precipitate was suspended in homogenate and blown evenly, and the protein concentration was measured by the Bradford's method and adjusted to 10 mg/ml; 7.5 wt % Ficoll's layering solution was added in equal proportions. After centrifugation at 100,000 g for 60 min, the middle layer (H^+/K^+-ATPase-enriched gastric membranes) was collected in a clean centrifuge tube, diluted with homogenate by 4-5 times, and then centrifuged at 100,000 g for another 90 min, and the precipitate was collected; the precipitate was suspended in homogenate and homogenized in a glass homogenizer, and the protein concentration was measured by the Bradford's method and adjusted to 22.5 mg/ml. It was frozen at −80° C. and stored for future use.
5 μL of rabbit gastric mucosal microsomes (H^+/K^+-ATPase) was added to 45 μL of buffer II, then 5 μL of compound solution was added, and then 5 μL of 5 mM ATP solution was added to start the reaction and pre-react at 37° C. for 30 min. 15 μL of malachite green solution was added to terminate the reaction, balancing was conducted at room temperature for 20 min, and read the optical absorbance at 620 nm.
Meanwhile, the reaction of the same volume was carried out without addition of potassium chloride as a background, which was subtracted when calculating enzymatic activity.
On to `CNCc1cc(-c2ccc(OCc3cc(F)cc(F)c3)cc2F)n(S(=O)(=O)c2cccnc2)c1` [Compound 58], for which the IC50 stood at 25.7 nM.
The result for `CNCc1cc(-c2ccc(OCc3ccccc3OC(F)F)cc2F)n(S(=O)(=O)c2cccnc2)c1` [Compound 59] reads 41.3 nM; that for `CNCc1cc(-c2ccc(OCc3ccccc3OC(F)(F)F)cc2F)n(S(=O)(=O)c2cccnc2)c1` [Compound 60], 186 nM.
The result for `CNCc1cc(-c2ccc(OCc3ccc(OC(F)F)cc3)cc2F)n(S(=O)(=O)c2cccnc2)c1` [Compound 61] reads 51.3 nM; that for `CNCc1cc(-c2ccc(OCc3cccc4ccccc34)cc2F)n(S(=O)(=O)c2cccnc2)c1` [Compound 62], 35.9 nM; that for `CNCc1cc(-c2ccc(OCc3cccc4ccccc34)cc2F)n(S(=O)(=O)c2cccc(C#N)c2)c1` [Compound 63], 1060 nM.
Regarding `CNCc1cc(-c2ccc(OCc3ccc(C(=O)O)cc3)cc2F)n(S(=O)(=O)c2cccnc2)c1` [Compound 64], the IC50 worked out at 164 nM.
Turning to `CNCc1cc(-c2ccc(OC(C)c3cc(F)ccc3F)cc2F)n(S(=O)(=O)c2cccnc2)c1` (centres unmarked) [Compound 65], the IC50 came to 80.5 nM.
The same measure for `CNCc1cc(-c2ccc(O[C@@H](C)c3c(Cl)ccc(F)c3Cl)cc2F)n(S(=O)(=O)c2cccnc2)c1` [Compound 66]: 485 nM; for `CNCc1cc(-c2ccc(OC(C)c3cc(F)cc(F)c3)cc2F)n(S(=O)(=O)c2cccnc2)c1` (centres unmarked) [Compound 68]: 41.4 nM.
The same measure for `CNCc1cc(-c2ccc(OC(C)c3c(F)cccc3F)cc2F)n(S(=O)(=O)c2cccc(C#N)c2)c1` (centres unmarked) [Compound 69]: 114 nM.
The result for `CNCc1cc(-c2ccc(OC(C)c3cc(F)cc(F)c3)cc2F)n(S(=O)(=O)c2cccc(C#N)c2)c1` (centres unmarked) [Compound 70] reads 88.1 nM.
In the case of `CNCc1cc(-c2ccc(OC(C)c3cc(F)cc(F)c3)cc2F)n(S(=O)(=O)c2cccc(OCC3CC3)c2)c1` (centres unmarked) [Compound 71], the IC50 is 496 nM.
The result for `CNCc1cc(-c2ccc(OC(C)c3c(F)cccc3F)cc2F)n(S(=O)(=O)c2cccc(OCC3CC3)c2)c1` (centres unmarked) [Compound 72] reads 342 nM.
The result for `CNCc1cc(-c2ccc(OCc3ccc(C)cc3C)cc2F)n(S(=O)(=O)c2cccnc2)c1` [Compound 73] reads 209 nM; that for `CNCc1cc(-c2ccc(OCc3ccncc3)cc2F)n(S(=O)(=O)c2cccnc2)c1` [Compound 74], 564 nM.
`CNCc1cc(-c2ccc(OCc3ccccc3OC)cc2F)n(S(=O)(=O)c2cccnc2)c1` [Compound 75]: the IC50 was found to be 36.6 nM.
The result for `CNCc1cc(-c2ccc(O[C@H](C)c3c(Cl)ccc(F)c3Cl)cc2F)n(S(=O)(=O)c2cccnc2)c1` [Compound 76] reads 470 nM; that for `CNCc1cc(-c2ccc(OCc3ccsc3)cc2F)n(S(=O)(=O)c2cccnc2)c1` [Compound 77], 120 nM; that for `CNCc1cc(-c2ccc(OCc3cc(F)ccc3F)cc2F)n(S(=O)(=O)c2cccc(Cl)c2)c1` [Compound 78], 98.5 nM.
For the molecule `CNCc1cc(-c2ccc(OCc3cc(F)ccc3F)cc2F)n(S(=O)(=O)c2cccc(F)c2)c1` [Compound 79], the IC50 came to 55.3 nM.
The same measure for `CNCc1cc(-c2ccc(OCc3cc(F)ccc3F)cc2F)n(S(=O)(=O)c2cc(F)cc(F)c2)c1` [Compound 80]: 65.9 nM.
As for `CNCc1cc(-c2ccc(OCc3cc(F)ccc3F)cc2F)n(S(=O)(=O)c2ccc(C)c(F)c2)c1` [Compound 81], the IC50 is 56.6 nM.
The same measure for `CCCCCOc1cccc(S(=O)(=O)n2cc(CNC)cc2-c2ccc(OCc3cc(F)ccc3F)cc2F)c1` [Compound 82]: 3660 nM.
The same measure for `CNCc1cc(-c2ccc(OC(C)c3c(F)cccc3F)cc2F)n(S(=O)(=O)c2cccc(OCC3CCC3)c2)c1` (centres unmarked) [Compound 83]: 13300 nM.
In the case of `CNCc1cc(-c2ccc(OCc3cc(F)ccc3F)cc2F)n(S(=O)(=O)c2cccc(OCC3CCCC3)c2)c1` [Compound 84], the IC50 came to 109 nM.
